Tests used:
[1] = Forced swimming test (FST); assay type: in vivo, rat; details: for change of total time of immobility in FST: Example 3, single i.p. 30 min before test, citalopram or paroxetine 10 mg/kg; for change of total time of immobility in FST / time of immobility in FST: prucalopride 2.5 mg/kg, RS 67333 1.5 mg/kg; for time of immobility in FST: 4 min observation, i.p. 30 min before test, control 88.2±7.2
Description: The “forced swimming test” (FST) is a behavioural test for rodents, which predicts the efficacy of antidepressant drugs (Porsolt et al., 1977; Lucki, 1997). […] The widespread use of this model is largely a result of its ease of use, reliability across laboratories and ability to detect a broad spectrum of antidepressant agents. The test is based on the observation that rats, following initial escape-oriented movements (climbing and swimming), develop an immobile posture when placed in an inescapable cylinder of water. If they are replaced in the same testing apparatus 24 h later, they resume this immobile posture quickly. The immobility is thought to reflect either a failure of persistence in escape-directed behavior (i.e. behavioral despair) or the development of passive behavior that disengages the animal from active forms of coping with stressful stimuli. If antidepressant treatments are given between the two exposures, the subjects will actively persist engaging in escape-directed behaviors for longer periods of time than after vehicle treatment. This will be reflected by a reduction of immobility time, and by an increase of climbing attempts. […] The combination effect of a particular 5-HT4 agonist and a SSRI may be evaluated using the FST model.
Experiments were carried out in male Sprague-Dawley rats (Charles River, St Constant, Québec). We used the FST as previously described (Porsolt et al., 1977). Briefly, the rats experienced a pretest session followed 24 hours later by a test session. For both the pretest and the test sessions, conducted under low illumination (12 lx), the rats were placed in a plastic cylindrical tank (50 cm high by 20 cm in diameter) filled with water at […], with a depth of 40 cm, for which the hind limbs could not reach the tank floor. In all experiments, the pretest was carried out for 15 min and the test for 5 min in the same tank but only the last 4 min were analyzed. Following either pretest or test sessions, rats were dried with a towel and kept warm for 30 min before returning in their home cage. A digital camera recorded on line animal's behavior during the FST, and both time of immobility and climbing attempts were counted. Citalopram hydrobromide (10 mg/kg, i.p.) or paroxetine (10 mg/kg, i.p.) and prucalopride hydrochloride (2.5 mg/kg, i.p.) or RS 67333 hydrochloride (1.5 mg/kg, i.p.) were administered simultaneously 30 minutes before the test session. Animals were divided into 4 groups: vehicle/vehicle, 5-HT4 agonist/vehicle, vehicle/SSRI and 5-HT4 agonist/SSRI. For each compound, distilled water was used as the vehicle. All drug dosages refer to the free base.
Behavioral experiments. We used the FST as previously described (Porsolt et al., 1977). Briefly, rats experienced a pre-test session followed 24 hours later by a test session. For both the pre-test and the test sessions, conducted under low illumination (12 lx), the animals were placed in a plastic cylindrical tank (50 cm high by 20 cm in diameter) filled with water at […], with a depth of 40 cm, for which the hind limbs could not reach the tank floor. In all experiments, the pre-test was carried out for 15 min and the test for 5 min in the same tank but the last 4 min only were analyzed. Prucalopride (2.5 mg/kg, i.p.) and RS 67333 (1.5 mg/kg, i.p.) were administered 30 min before the test session. Following either pre-test or test sessions, rats were dried with a towel and kept warm for 30 min before returning in their home cage. A camera coupled with a computer recorded on line animal behavior during the FST through a specialized digital interface (Videotrack, ViewPoint, Lyon, France). This interface underscored on line the subtraction of video frames. Immobility time in FST was derived from the number of frames (every 40 ms) being below a predefined threshold over FST duration.

[2] = Horizontal locomotion in activity chambers; details: i.p. 30 min before testing; prucalopride 2.5 mg/kg, RS 67333 1.5 mg/kg
Description: All data are expressed as mean±S.E.M. of eight animals per group, and are from an observation of 4 min duration. Rats experienced a pre-test session (15 min) 24 h before the test session. The 5-HT4 agonists were administered 30 min before the test session. […] Data are expressed as mean±S.E.M. of eight animals per group, and are from an observation of 10 min duration. The 5-HT4 agonists were administered 30 min before testing. *p<0.05, **p<0.01 vs the vehicle, Dunnett's test;
Thirty min after drug administration, rats were placed in activity cages in whom photoelectric cells were inserted allowing recordings of locomotor activity, i.e. quantification of the total number of activity counts (photocell beam breaks) during 10 min. session.

SMILES | change of total time of immobility in FST [1] | time of immobility in FST ([1]; Example 6) [s] | increase of climbing in FST ([1]; Example 6, RS 67333 1.5 mg/kg i.p.) | effect on rat locomotion (activity counts, 10 min) [2] [%]
CCCCN1CCC(CCC(=O)c2cc(Cl)c(N)cc2OC)CC1 [RS 67333, 1-(4-amino-5-chloro-2-methoxyphenyl)-3-(1-n-burtl-4-piperidinyl)-1-propanone] | very similar effect | 42.7 ± 4.9 | +94% | 
COCCCN1CCC(NC(=O)c2cc(Cl)c(N)c3c2OCC3)CC1 [prucalopride] | −54% | 43.4 ± 3.5 |  | 78

From patent publication US20090170899A1, “Stimulators of 5-HT4 receptors and uses thereof” (priority 2004, published 2009)
